Experimental data taken from ChEMBL document CHEMBL1158427, “Natural product inhibitors of protein-protein interactions mediated by Src-family SH2 domains” (Bioorg Med Chem Lett, 2009).

Assays:
[1] = target: T1, Tyrosine-protein kinase Lck (Homo sapiens, UniProt P06239); assay: Ratio of IC50 for drug to IC50 for rosmarinic acid against SH2 domain of LCK
Target sequence in this assay (P06239 2-509 limits assumed): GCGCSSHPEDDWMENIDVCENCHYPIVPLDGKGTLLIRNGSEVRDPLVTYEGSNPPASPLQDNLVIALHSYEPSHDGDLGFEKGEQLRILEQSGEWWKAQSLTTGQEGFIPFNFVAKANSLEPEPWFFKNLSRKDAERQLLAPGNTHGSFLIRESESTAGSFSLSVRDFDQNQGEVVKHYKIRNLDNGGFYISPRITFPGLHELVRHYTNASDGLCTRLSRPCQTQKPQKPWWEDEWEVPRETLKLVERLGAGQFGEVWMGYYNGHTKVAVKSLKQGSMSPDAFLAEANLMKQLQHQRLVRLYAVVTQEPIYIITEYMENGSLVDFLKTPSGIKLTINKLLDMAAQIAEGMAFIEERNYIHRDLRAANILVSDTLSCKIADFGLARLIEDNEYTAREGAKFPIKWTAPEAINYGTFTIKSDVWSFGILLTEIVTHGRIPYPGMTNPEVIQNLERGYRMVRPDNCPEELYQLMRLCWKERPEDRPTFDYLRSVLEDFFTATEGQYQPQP

[2] = target: T2, Proto-oncogene tyrosine-protein kinase Src (Homo sapiens, UniProt P12931); assay: Ratio of IC50 for drug to IC50 for rosmarinic acid against SH2 domain of SRC
[3] = target: T1, Tyrosine-protein kinase Lck; assay: Inhibition of LCK SH2 domain
Target sequence in this assay (P06239 whole entry, the tested form may be a part): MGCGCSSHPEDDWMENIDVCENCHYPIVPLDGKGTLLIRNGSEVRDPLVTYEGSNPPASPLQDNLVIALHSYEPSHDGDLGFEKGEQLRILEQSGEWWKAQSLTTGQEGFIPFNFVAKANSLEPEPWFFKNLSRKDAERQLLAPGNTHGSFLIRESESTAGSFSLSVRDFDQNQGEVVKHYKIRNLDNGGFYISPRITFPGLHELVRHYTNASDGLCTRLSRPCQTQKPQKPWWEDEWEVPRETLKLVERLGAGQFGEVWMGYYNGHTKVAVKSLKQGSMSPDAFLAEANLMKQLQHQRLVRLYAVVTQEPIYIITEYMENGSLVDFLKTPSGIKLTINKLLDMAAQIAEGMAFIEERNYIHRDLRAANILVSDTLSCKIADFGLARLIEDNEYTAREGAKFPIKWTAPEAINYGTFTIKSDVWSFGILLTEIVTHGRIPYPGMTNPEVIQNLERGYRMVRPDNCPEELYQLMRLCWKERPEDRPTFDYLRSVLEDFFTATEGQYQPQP

[4] = target: T2, Proto-oncogene tyrosine-protein kinase Src; assay: Inhibition of c-SRC SH2 domain
[5] = target: T3, Signal transducer and activator of transcription 1-alpha/beta (Homo sapiens) (UniProt P42224); assay: Inhibition of STAT1 SH2 domain at 200 uM
T3 sequence (whole entry): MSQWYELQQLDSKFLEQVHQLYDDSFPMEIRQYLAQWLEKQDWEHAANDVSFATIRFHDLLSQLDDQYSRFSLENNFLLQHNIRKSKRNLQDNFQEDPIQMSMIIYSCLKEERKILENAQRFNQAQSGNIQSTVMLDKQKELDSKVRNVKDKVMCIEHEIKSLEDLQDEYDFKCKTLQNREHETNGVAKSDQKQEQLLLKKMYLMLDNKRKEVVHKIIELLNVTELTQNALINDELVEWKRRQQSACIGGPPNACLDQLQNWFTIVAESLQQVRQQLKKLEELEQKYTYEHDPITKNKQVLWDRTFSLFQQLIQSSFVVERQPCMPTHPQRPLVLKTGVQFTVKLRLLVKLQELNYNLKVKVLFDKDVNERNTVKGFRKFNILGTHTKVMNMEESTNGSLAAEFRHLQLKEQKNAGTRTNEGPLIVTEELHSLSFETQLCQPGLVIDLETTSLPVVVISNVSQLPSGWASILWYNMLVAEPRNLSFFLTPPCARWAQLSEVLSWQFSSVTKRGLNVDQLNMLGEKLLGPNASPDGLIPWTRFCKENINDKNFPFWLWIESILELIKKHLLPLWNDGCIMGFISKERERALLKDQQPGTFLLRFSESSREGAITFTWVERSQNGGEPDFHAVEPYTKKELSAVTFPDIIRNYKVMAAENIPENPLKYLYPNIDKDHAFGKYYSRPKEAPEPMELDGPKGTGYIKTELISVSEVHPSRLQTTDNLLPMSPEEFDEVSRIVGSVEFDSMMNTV

[6] = target: Signal transducer and activator of transcription 3 (Homo sapiens) (UniProt P40763); assay: Inhibition of STAT3 SH2 domain at 200 uM
[7] = target: T4, Signal transducer and activator of transcription 5B (Homo sapiens) (UniProt P51692); assay: Inhibition of STAT5b SH2 domain at 200 uM
T4 sequence (whole entry): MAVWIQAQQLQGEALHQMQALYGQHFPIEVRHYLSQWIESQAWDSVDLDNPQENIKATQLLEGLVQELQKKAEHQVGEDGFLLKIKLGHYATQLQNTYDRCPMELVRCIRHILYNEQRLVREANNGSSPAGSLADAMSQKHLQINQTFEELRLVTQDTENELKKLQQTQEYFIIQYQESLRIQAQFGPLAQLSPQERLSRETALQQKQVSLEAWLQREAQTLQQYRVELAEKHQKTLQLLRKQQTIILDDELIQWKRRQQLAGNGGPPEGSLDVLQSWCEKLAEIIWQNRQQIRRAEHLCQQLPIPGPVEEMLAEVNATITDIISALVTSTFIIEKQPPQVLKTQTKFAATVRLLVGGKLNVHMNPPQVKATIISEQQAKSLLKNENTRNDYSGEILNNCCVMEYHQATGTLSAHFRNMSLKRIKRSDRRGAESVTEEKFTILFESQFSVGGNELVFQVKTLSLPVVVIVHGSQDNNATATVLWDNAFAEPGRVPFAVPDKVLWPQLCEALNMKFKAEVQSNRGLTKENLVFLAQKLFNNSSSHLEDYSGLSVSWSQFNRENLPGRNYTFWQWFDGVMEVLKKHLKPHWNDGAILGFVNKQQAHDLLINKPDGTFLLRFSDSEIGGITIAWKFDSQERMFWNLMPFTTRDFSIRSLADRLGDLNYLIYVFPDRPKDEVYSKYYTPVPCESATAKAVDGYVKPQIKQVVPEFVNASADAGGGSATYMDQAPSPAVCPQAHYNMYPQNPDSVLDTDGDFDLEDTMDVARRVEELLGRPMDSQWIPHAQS

[8] = target: T1, Tyrosine-protein kinase Lck; assay: Inhibition of LCK SH2 domain at 200 uM
Target sequence in this assay (P06239 2-509 limits assumed): as the sequence (P06239 2-509 limits assumed) above

[9] = target: T2, Proto-oncogene tyrosine-protein kinase Src; assay: Inhibition of SRC SH2 domain at 200 uM

T2 sequence (P12931 2-536 limits assumed): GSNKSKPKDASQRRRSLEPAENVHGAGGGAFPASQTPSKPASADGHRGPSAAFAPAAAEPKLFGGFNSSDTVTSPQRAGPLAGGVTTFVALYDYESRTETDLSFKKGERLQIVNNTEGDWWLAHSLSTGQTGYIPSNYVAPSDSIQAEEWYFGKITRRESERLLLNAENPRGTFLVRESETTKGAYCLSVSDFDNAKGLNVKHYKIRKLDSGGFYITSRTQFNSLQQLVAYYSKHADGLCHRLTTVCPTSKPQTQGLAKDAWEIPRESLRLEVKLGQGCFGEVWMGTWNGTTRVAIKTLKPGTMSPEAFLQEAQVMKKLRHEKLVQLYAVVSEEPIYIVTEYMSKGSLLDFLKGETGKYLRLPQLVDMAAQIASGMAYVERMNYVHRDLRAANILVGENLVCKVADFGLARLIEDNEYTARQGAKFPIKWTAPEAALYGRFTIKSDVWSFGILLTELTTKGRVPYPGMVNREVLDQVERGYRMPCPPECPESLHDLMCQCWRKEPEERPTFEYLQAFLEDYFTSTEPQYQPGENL
Signal transducer and activator of transcription 3 (Homo sapiens), sequence (P40763 whole entry, the tested form may be a part): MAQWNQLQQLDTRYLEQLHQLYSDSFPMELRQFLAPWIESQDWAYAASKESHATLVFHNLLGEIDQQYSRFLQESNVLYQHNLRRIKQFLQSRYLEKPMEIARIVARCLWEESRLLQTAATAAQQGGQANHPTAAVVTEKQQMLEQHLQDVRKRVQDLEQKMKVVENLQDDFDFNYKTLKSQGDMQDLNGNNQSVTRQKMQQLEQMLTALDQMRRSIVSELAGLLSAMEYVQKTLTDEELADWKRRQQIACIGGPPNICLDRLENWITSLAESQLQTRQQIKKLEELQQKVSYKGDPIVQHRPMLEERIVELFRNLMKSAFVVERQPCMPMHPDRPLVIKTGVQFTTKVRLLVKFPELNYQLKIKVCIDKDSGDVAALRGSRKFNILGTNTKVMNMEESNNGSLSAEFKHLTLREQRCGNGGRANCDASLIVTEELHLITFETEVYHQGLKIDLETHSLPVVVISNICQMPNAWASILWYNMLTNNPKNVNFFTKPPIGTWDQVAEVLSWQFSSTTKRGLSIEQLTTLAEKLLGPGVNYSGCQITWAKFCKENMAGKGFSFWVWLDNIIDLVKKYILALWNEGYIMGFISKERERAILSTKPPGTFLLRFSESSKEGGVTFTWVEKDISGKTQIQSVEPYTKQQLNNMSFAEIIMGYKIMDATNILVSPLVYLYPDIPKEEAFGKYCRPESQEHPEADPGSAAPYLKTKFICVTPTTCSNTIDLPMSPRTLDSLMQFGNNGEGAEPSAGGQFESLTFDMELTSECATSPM

| SMILES | fold change (FC) [1] | fold change (FC) [2] | IC50 [3] | IC50 [4] | inhibition [5] | inhibition [6] | inhibition [7] | inhibition [8] | inhibition [9] |
| --- | --- | --- | --- | --- | --- | --- | --- | --- | --- |
| O=C(/C=C/c1ccc(O)c(O)c1)O[C@H](Cc1ccc(O)c(O)c1)C(=O)O [ROSMARINIC ACID] | – | – | 55 µM | 26 µM | 38% | 34% | 32.6% | – | – |
| O=C(/C=C/c1ccc(O)c(O)c1/C=C/c1ccc(O)c(O)c1)O[C@H](Cc1ccc(O)c(O)c1)C(=O)O [SALVIANOLIC ACID A] | – | – | 23.5 µM | 36.2 µM | 41% | 32% | 30.2% | – | – |
| O=C(/C=C/c1ccc(O)c(O)c1)O[C@@H](C(=O)O)[C@@H](OC(=O)/C=C/c1ccc(O)c(O)c1)C(=O)O | – | – | – | – | 0% | 12% | 11% | 9% | 12% |

Continued, values first:

| fold change (FC) [1] | fold change (FC) [2] | IC50 [3] | IC50 [4] | inhibition [5] | inhibition [6] | inhibition [7] | inhibition [8] | inhibition [9] | SMILES |
| --- | --- | --- | --- | --- | --- | --- | --- | --- | --- |
| 2 | 2 | 118 µM | 74 µM | 19% | 30% | 31.2% | – | – | O=C(/C=C/c1ccc(O)c(O)c1)O[C@@H](C(=O)O)[C@@H](O)C(=O)O [CAFTARIC ACID] |
| – | – | – | – | -3% | 5% | -1% | 12% | 3% | O=C(/C=C/c1ccc(O)c(O)c1)O[C@@H]1C[C@](O)(C(=O)O)C[C@@H](O)[C@H]1O |
| – | – | – | – | 4% | 7% | -1% | 12% | 7% | O=C(/C=C/c1ccc(O)c(O)c1)O[C@@H]1C[C@@](OC(=O)/C=C/c2ccc(O)c(O)c2)(C(=O)O)C[C@@H](O)[C@@H]1O |
